The source of these data is patent US20250382268A1, “METHODS AND COMPOSITIONS FOR SELECTIVELY INHIBITING PATHOGENIC MICROBES” (priority 2019, published 2025).

SMILES strings stand for the structures. ≈ marks a conversion by molar mass, not a printed value. Where two headings read alike, the source gives them in different places.

One test relates to HepG2 cells. The test can be described thus: Cytotoxicity MTT assay in HepG2 cells. It is filed as cell-based. The conditions noted are these: Homo sapiens. As to the method:
Additionally, the antimicrobial compounds were analyzed for cytotoxicity. […] We utilized the standard MTT assay (Promega CellTiter 96) and GraphPad Prism 7 software to determine EC50 values for each analogue. Briefly, 20,000 HepG2 cells in 200 μl of the ATCC recommended media were seeded in each well of a 96-well plate with a moisture barrier created in the outermost wells. The cells were allowed to attach overnight at 37° C., and then observed under phase contrast microscopy for proper morphological characteristics. […] Once incubations were complete, the spectrophotometric absorbance of the samples was measured at a wavelength of 595 nm. […] For the HepaRG assay, NoSpin HepaRG™ cells (Lonza, cat #NSHPRG) were thawed and plated with 20,000 cells per well. They were allowed to attach for 4 h (optimal DME profile per Lonza's testing) before dosing following the identical protocol as above.
(Formazan colour is commonly taken as a measure of viable cells.)

The next test relates to Staphylococcus aureus. The experiment in a line: microbe, parasite or virus in culture.
In another test the test system is Francisella tularensis. The test can be described thus: microbe, parasite or virus in culture. It is filed as cell-based. As to conditions: read-out: Francisella tularensis NR-577 MIC, strain NR-577.

As a reminder, the EC50 is the concentration giving half of the maximal effect. Higher therefore signals a need for much substance.

In the case of `Clc1ccc(Sc2c[nH]c3ccc(Br)cc23)cc1` [Compound 174J, 5-bromo-3-((4-chlorophenyl)thio)-1H-indole], in the test on HepG2 cells, it took 25.3 mg/L (≈ 74.7 µM) to reach a half-maximal effect (EC50).

Turning to `Brc1cccc(Sc2c[nH]c3ccc(Br)cc23)c1` [Compound 174N, 5-bromo-3-((3-bromophenyl)thio)-1H-indole], the EC50 in the test on HepG2 cells was found to be 29.5 mg/L (≈ 77 µM). Further, the MIC came to 3.13 mg/L (≈ 8.17 µM) in the test on Staphylococcus aureus (MRSA, read-out: Staphylococcus aureus MIC, MRSA strain HM-467); 3.13 mg/L (≈ 8.17 µM) in the test with Staphylococcus aureus (MRSA, read-out: Staphylococcus aureus MIC, MRSA strain NK-41886); 3.13 mg/L (≈ 8.17 µM) in the test with Staphylococcus aureus (MRSA, read-out: Staphylococcus aureus MIC, MRSA strain NR-13533); 3.13 mg/L (≈ 8.17 µM) in the test with Staphylococcus aureus (MRSA, read-out: Staphylococcus aureus MIC, MRSA strain NR-28983); 3.13 mg/L (≈ 8.17 µM) in the test on Staphylococcus aureus (MRSA, read-out: Staphylococcus aureus MIC, MRSA strain NR-41875); 3.13 mg/L (≈ 8.17 µM) with Staphylococcus aureus (MRSA, read-out: Staphylococcus aureus MIC, MRSA strain NR-41876). In addition, the MIC was determined as 3.13 mg/L (≈ 8.17 µM) with Staphylococcus aureus (MRSA, read-out: Staphylococcus aureus MIC, MRSA strain NR-41877); 3.13 mg/L (≈ 8.17 µM) in the test on Staphylococcus aureus (MRSA, read-out: Staphylococcus aureus MIC, MRSA strain NR-41878); 1.56 mg/L (≈ 4.07 µM) with Staphylococcus aureus (read-out: Staphylococcus aureus MIC, VSSA NR-49121).

For the molecule `Fc1ccc(Sc2c[nH]c3ccc(Br)cc23)cc1` [Compound 174P, 5-bromo-3-((4-fluorophenyl)thio)-1H-indole], in the test with HepG2 cells, it took 38.3 mg/L (≈ 119 µM) to reach a half-maximal effect (EC50).

As to `Clc1ccc(Sc2c[nH]c3ccc(Br)cc23)c(Cl)c1` [Compound 174V, 5-bromo-3-((2,4-dichlorophenyl)thio)-1H-indole], the EC50 in the test with HepG2 cells is 24.8 mg/L (≈ 66.5 µM).

Regarding `Nc1cc(Br)ccc1Sc1c[nH]c2ccc(Br)cc12` [Compound 174X, 5-bromo-2-((5-bromo-1H-indol-3-yl)thio)aniline], in the test with HepG2 cells, the EC50 stood at 30.2 mg/L (≈ 75.9 µM).

In the test on HepG2 cells, `Oc1ccccc1Sc1c[nH]c2ccc(C(F)(F)F)cc12` [Compound 177A, 2-((5-(trifluoromethyl)-1H-indol-3-yl)thio)phenol] yielded an EC50 of 24.1 mg/L (≈ 77.9 µM).

With `Oc1ccc(Sc2c[nH]c3ccc(C(F)(F)F)cc23)cc1` [Compound 177B, 4-((5-(trifluoromethyl)-1H-indol-3-yl)thio)phenol], the EC50 with HepG2 cells was 27.7 mg/L (≈ 89.6 µM). The EC50 values of the last two molecules are within 1.5-fold of each other.

Regarding `Nc1ccccc1Sc1c[nH]c2ccc(C(F)(F)F)cc12` [Compound 177C, 2-((5-(trifluoromethyl)-1H-indol-3-yl)thio)aniline], in the test with HepG2 cells, it took 48.2 mg/L (≈ 156 µM) to reach a half-maximal effect (EC50). Against the preceding molecule, the EC50 is about 1.7-fold higher.

`Fc1ccccc1Sc1c[nH]c2ccc(C(F)(F)F)cc12` [Compound 177D, 3-((2-fluorophenyl)thio)-5-(trifluoromethyl)-1H-indole] registered an EC50 in the test on HepG2 cells of 27.1 mg/L (≈ 87.1 µM).

Turning to `Fc1ccc2[nH]cc(Sc3ccccc3Br)c2c1` [Compound 177E, 3-((2-bromophenyl)thio)-5-fluoro-1H-indole], the EC50 in the test with HepG2 cells is 31.6 mg/L (≈ 98.1 µM).

As to `FC(F)(F)c1ccc2[nH]cc(Sc3ccccc3C(F)(F)F)c2c1` [Compound 177F, 5-(trifluoromethyl)-3-((2-(trifluoromethyl)phenyl)thio)-1H-indole], it took 29.8 mg/L (≈ 82.5 µM) to reach a half-maximal effect in the test on HepG2 cells (EC50).

Take `CCc1ccccc1Sc1c[nH]c2ccc(C(F)(F)F)cc12` [Compound 177G, 3-((2-ethylphenyl)thio)-5-(trifluoromethyl)-1H-indole]: the EC50 with HepG2 cells amounted to 29.5 mg/L (≈ 91.8 µM). The EC50 values of the last two molecules are within 1.5-fold of each other.

In the test on HepG2 cells, `OCc1[nH]c2ccc(Br)cc2c1Sc1ccccc1Br` [Compound 177H, (5-bromo-3-((2-bromophenyl)thio)-1H-indol-2-yl)methanol] had an EC50 of 31.8 mg/L (≈ 77 µM).

Regarding `CCc1ccccc1Sc1c(CO)[nH]c2ccc(C(F)(F)F)cc12` [Compound 177I, (3-((2-ethylphenyl)thio)-5-(trifluoromethyl)-1H-indol-2-yl)methanol], the EC50 in the test on HepG2 cells amounted to 31.3 mg/L (≈ 89.1 µM). The EC50 values of the last two molecules are within 1.5-fold of each other.

Consider `c1ccc(Oc2c[nH]c3ccccc23)cc1` [Compound 925C, 3-phenoxy-1H-indole], for which the MIC with Francisella tularensis is 8 mg/L (≈ 38.2 µM).
